Laboratory results reported in patent publication US5139945A, “Thermostable alginate lyase from Bacillus steraothermophilus” (Novo Industri A/S, priority 1988, dated 1992).

Test system: Alginate lyase from Bacillus stearothermophilus
Experiment: Effects of chemicals commonly used in water cooling systems on alginate lyase activity
Format: biochemical
Conditions: for Inhibition (%) of Chemicals on Enzyme Activity: chemical at 10 mM final concentration, 16 hours incubation; for inhibition of the enzyme (in words): mineral content of cooling water
Method: Alginate lyase activity (increase in optical density at 230 nm) at 55° C. was monitored with sodium alginate as the substrate. Constant amounts of substrate, enzyme and MgCl2 (10 mM) were present in all reactions. Citrate-phosphate buffer was used between pH 5.0 and 6.5 and phosphate buffer was used between pH 6.0 and 8.0.
EDTA (ethylene diamine tetraacetate), NaCl, FeSO4, NaAlO2, Na2 MoO4, Zn, glutaraldehyde hydrazine and sodium nitrite were tested at the final concentration of 10 mM. Alginate lyase activity was monitored as described in Example 2 over 16 hours incubation.

For `O=C(O)CN(CCN(CC(=O)O)CC(=O)O)CC(=O)O` [EDTA, ethylene diamine tetraacetate], the “Inhibition (%) of Chemicals on Enzyme Activity” value (from here on “Inhibition (%) of Chemicals”) was 0%.

`O=S(=O)([O-])[O-].[Fe+2]` [FeSO4] was tested, and the “Inhibition (%) of Chemicals” value was 0%.

In the case of `[Na+].[Na+].[O]=[Mo](=[O])([O-])[O-]` [Na2 MoO4], the “Inhibition (%) of Chemicals” value is reported as 0%.

With `[Na+].[O]=[Al-]=[O]` [NaAlO2] the “Inhibition (%) of Chemicals” value was 0%.

With `[Cl-].[Na+]` [NaCl] the “Inhibition (%) of Chemicals” value was 48.7% and the “inhibition of the enzyme (in words)” value was “partially inhibit”.

`O=N[O-].[Na+]` [NaNO2, sodium nitrite] was tested, and the “Inhibition (%) of Chemicals” value was 0%.

`[Zn]` [Zn] was tested, and the “Inhibition (%) of Chemicals” value was 43.7% and the “inhibition of the enzyme (in words)” value was “partially inhibit”.

With `O=CCCCC=O` [glutaraldehyde] the “Inhibition (%) of Chemicals” value was 0%.

In the case of `NN` [hydrazine], the “Inhibition (%) of Chemicals” value is reported as 0%.
